The record followed here is US9868715B2 (THE BOARD OF REGENTS OF THE UNIVERSITY OF TEXAS SYSTEMS, priority 2014, dated 2018).

Series [1] concerns transformed PSC (human pancreatic stellate cells). Kind of series: PSC apoptosis, Cell Death Detection ELISA PLUS assay. The format is cell-based. The conditions noted are these: 14 h; for EC50: mean±SEM of at least three experiments. As to the method:
These two representative analogues were also investigated to determine whether the growth inhibition induced by compounds 23 and 24 in PSC was attributed to apoptosis. Apoptosis was determined using the Cell Death Detection ELISA^PLUS assay. This sandwich-enzyme-immunoassay involved antibodies binding to cytoplasmic nucleosomes, which were specific to the process of apoptosis rather than necrosis. […] Next, the dose-response curve was generated (FIG. 3B). The EC50 represented the concentration at which the compound yielded half of the maximal amount of cell death. […] The capacity of the compounds to induce cell death in activated PSC would most likely translate into reduced fibrosis in CP. […] Under an IRB-approved tissue protocol, discarded human resected pancreatic tissue (500 mm^3) was attained fresh from the operating room at the University of Texas Medical Branch. The tissue was minced and plated on a collagen-coated flask (15 μg/mL, Invitrogen) with DMEM (VWR; Radnor, Pa.) supplemented with penicillin 200 U/mL, streptomycin 200 μg/mL, amphotericin B 0.25 μg/mL and gentimicin 50 μg/mL (Invitrogen, Carlsbad Calif.), 10% fetal bovine serum (Lonza, Walkersville, Md.), 1% insulin-transferrin, selenium-ethanolamine (Gibco, Grand Island, N.Y.), and 1% non-essential amino acids (Sigma-Aldrich, St. Louis, Mo.). The human PSC were isolated by the outgrowth method.^41-43 The purity of PSC culture was confirmed by immunohistochemical staining for vimentin, α-smooth muscle actin, glial fibrillar acidic protein, or Oil red O staining. Primary PSC were transformed and immortalized for use in experiments using lentiviral vectors containing SV40 Large T antigen and human telomerase (plasmid #12245 and 12246; Addgene, Cambridge, Mass.). Cultures were maintained in DMEM with 10% FBS, at 37° C. in a humidified […] atmosphere. Cell death assay. Transformed PSC (8×10^3) were plated in 96-well plates in triplicate. […] The Cell Death Detection ELISA^PLUS assay (Roche Applied Science, Indianapolis, Ind.) was used and protocol followed (Version 11.0). Absorbance was measured at 405 nm, using the EL×800 Automated Microplate Reader (Bio-TEK Instruments, Inc., Winooski, Vt.). Statistical analysis. Dose-response curves were generated by plotting fluorescence or absorbance versus log (compound concentration). A best-fit curve was created using nonlinear regression, and the IC50 or EC50 determined from the graph (GraphPad Prism 5; GraphPad Software Inc., La Jolla, Calif.). To analyze continuos variables, unpaired student t-tests and one-way ANOVA with Tukey-Kramer multiple comparisons post-test (GraphPad Prism 5). Significance was set at p<0.05.
(ELISA stands for enzyme-linked immunosorbent assay.)

For series [2] the test system is unchanged. Kind of series: PSC proliferation, AlamarBlue Cell Viability Assay. The settings on record: for inhibition at 5 µM / inhibition at 10 µM / inhibition at 20 µM: Homo sapiens, mean of at least three independent experiments, NE = No effect, read-out: Inhibitory Effect (%) on PSC proliferation; for IC50: human PSC, 24 h, mean±SEM of at least three experiments, read-out: IC50, inhibition of PSC proliferation; for IC50 / Antiproliferative effect on PSC, result in words: AlamarBlue; for Antiproliferative effect on PSC, result in words: transformed PSC. The class given is cell-based. As to the method: The calculated lipophilicity (cLogP) and topological polar surface area (tPSA) values of synthesized analogues are listed in Table 1. […] AlamarBlue is a non-toxic reagent that is converted to a highly fluorescent end product by viable cells.
Under an IRB-approved tissue protocol, discarded human resected pancreatic tissue (500 mm^3) was attained fresh from the operating room at the University of Texas Medical Branch. The tissue was minced and plated on a collagen-coated flask (15 μg/mL, Invitrogen) with DMEM (VWR; Radnor, Pa.) supplemented with penicillin 200 U/mL, streptomycin 200 μg/mL, amphotericin B 0.25 μg/mL and gentimicin 50 μg/mL (Invitrogen, Carlsbad Calif.), 10% fetal bovine serum (Lonza, Walkersville, Md.), 1% insulin-transferrin, selenium-ethanolamine (Gibco, Grand Island, N.Y.), and 1% non-essential amino acids (Sigma-Aldrich, St. Louis, Mo.). The human PSC were isolated by the outgrowth method.^41-43 The purity of PSC culture was confirmed by immunohistochemical staining for vimentin, α-smooth muscle actin, glial fibrillar acidic protein, or Oil red O staining. Primary PSC were transformed and immortalized for use in experiments using lentiviral vectors containing SV40 Large T antigen and human telomerase (plasmid #12245 and 12246; Addgene, Cambridge, Mass.). Cultures were maintained in DMEM with 10% FBS, at 37° C. in a humidified 95% O2/5% CO2 atmosphere.
Cell proliferation assay. Transformed PSC (3×10^3) were plated in 96-well plates, in sextuplicate. […] AlamarBlue reagent (10% sample volume, DAL1025) was added to each well per Invitrogen's protocol. Fluorescence was recorded using excitation/emission wavelengths of 544/590 nm and the SpectraMax M2 Microplate Reader (Molecular Devices, Sunnyvale Calif.).
Statistical analysis. Dose-response curves were generated by plotting fluorescence or absorbance versus log (compound concentration). A best-fit curve was created using nonlinear regression, and the IC50 or EC50 determined from the graph (GraphPad Prism 5; GraphPad Software Inc., La Jolla, Calif.). To analyze continuos variables, unpaired student t-tests and one-way ANOVA with Tukey-Kramer multiple comparisons post-test (GraphPad Prism 5). Significance was set at p<0.05.
For orientation: Resazurin is reduced to fluorescent resorufin, in cell work by metabolically active cells.

Series [3] in a line: Aqueous solubility by HPLC analysis method. The format is physicochemical. The settings on record: in the form of HCl salt.

Regarding `COc1cc(OC)c2c(=O)cc(-c3ccc(OCC4CO4)cc3)oc2c1` (centres unmarked) [Compound 23, 5,7-Dimethoxy-2-(4-oxiranylmethoxyphenyl)-chromen-4-one], the EC50 (as a rule, the concentration that produces a half-maximal response) in series [1] worked out at 9.6 ± 1.8 µM. For the same compound, in series [2], the inhibition at 5 µM is 69%, the inhibition at 10 µM is 89%, the inhibition at 20 µM turned out to be 93% and the IC50 amounted to 2.5 ± 0.6 µM. Besides, the “Antiproliferative effect on PSC, result in words” value in series [2] was “highly potent inhibitor suppressing PSC proliferation”.
As for `COc1cc(OC)c2c(=O)cc(-c3ccc(OCC(O)CN4CCCCC4)cc3)oc2c1` (centres unmarked) [Compound 24, 2-(4-(2-Hydroxy-3-piperidin-1-yl-propoxy)phenyl)-5,7-dimethoxy-chromen-4-one], in series [1], the “Concentrations inducing stellate cell toxicity” value was “greater than 25 μM” and the 50% effective concentration (EC50) is 35.2 ± 5.5 µM. Moreover, in series [3], the “Aqueous solubility compared with apigenin, result in words” value is given as “significantly improved solubility” and the “Aqueous solubility, saturated concentration” value worked out at 84.1 mg/mL. Further, in series [2], the inhibition at 5 µM is 34%, the inhibition at 10 µM is 65%, the inhibition at 20 µM came to 95% and the IC50 came out at 8 ± 1.8 µM. Further, the “Antiproliferative effect on PSC, result in words” value in series [2] was “potent antiproliferative effects”.
Regarding `O=c1cc(-c2ccc(O)cc2)oc2cc(O)cc(O)c12` [Apigenin, 4′,5,7-trihydroxyflavone, reference compound], in series [1], the EC50 turned out to be 24.5 ± 2.5 µM. Also, in series [2], the inhibition at 5 µM was determined as 11%, the inhibition at 10 µM is 34%, the inhibition at 20 µM worked out at 64% and the IC50 stood at 18.6 ± 1.6 µM.
